Measured values as given in the supplement of paper PMC10307832.

Legend:
Assay in all cases: relative viability (nuclei count vs DMSO), 5 days (fraction); higher = more cells survive
ChaGo-K-1 = system: ChaGo-K-1
Procedure, shortened: (§1)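 Lung cancer cell lines were pin-tool dosed in 1536-well plates on the day after seeding, with either a lone drug or a fixed anchor-drug dose plus five library-drug doses (not always all listed) in √10 steps. Nuclei were counted on 4× images after 5 days. Relative viability is the ratio of treated-well to vehicle-well nuclei counts, with each value a median of duplicate plates.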

EKVX = system: EKVX
Procedure, shortened: as §1

EMC-BAC-2 = system: EMC-BAC-2
Procedure, shortened: as §1

EPLC-272H = system: EPLC-272H
Procedure, shortened: as §1

HCC-78 = system: HCC-78
Procedure, shortened: as §1

HCC-827 = system: HCC-827
Procedure, shortened: as §1

LCLC-103H = system: LCLC-103H
Procedure, shortened: as §1

LK-2 = system: LK-2
Procedure, shortened: as §1

LU99A = system: LU99A
Procedure, shortened: as §1

NCI-H1666 = system: NCI-H1666
Procedure, shortened: as §1

NCI-H1975 = system: NCI-H1975
Procedure, shortened: as §1

NCI-H2126 = system: NCI-H2126
Procedure, shortened: as §1

NCI-H2342 = system: NCI-H2342
Procedure, shortened: as §1

NCI-H23 = system: NCI-H23
Procedure, shortened: as §1

NCI-H2405 = system: NCI-H2405
Procedure, shortened: as §1

NCI-H322M = system: NCI-H322M
Procedure, shortened: as §1

PC-14 = system: PC-14
Procedure, shortened: as §1

RERF-LC-KJ = system: RERF-LC-KJ
Procedure, shortened: as §1

SW 900 = system: SW 900
Procedure, shortened: as §1

`COc1cc2nccc(Oc3ccc(NC(=O)Nc4cc(C)on4)c(Cl)c3)c2cc1OC` [Tivozanib] + NC(=O)Nc1cc(-c2cccc(F)c2)sc1C(=O)N[C@H]1CCCNC1 [AZD7762] (partner 0.2 µM) was tested, and the relative viability (ChaGo-K-1; first compound 0.005 µM) was 0.847, the relative viability (ChaGo-K-1; first compound 0.01581 µM) was 0.831 and the relative viability (ChaGo-K-1; first compound 0.05 µM) was 0.901. It also gave a relative viability (ChaGo-K-1; first compound 0.1581 µM) of 0.909, a relative viability (ChaGo-K-1; first compound 0.5 µM) of 0.845 and a relative viability (EKVX; first compound 0.005 µM) of 0.592. For the same compound, the relative viability (EKVX; first compound 0.01581 µM) was 0.695, the relative viability (EKVX; first compound 0.05 µM) was 0.76 and the relative viability (EKVX; first compound 0.1581 µM) was 0.69. For the same compound, the relative viability (EKVX; first compound 0.5 µM) was 0.689, the relative viability (EMC-BAC-2; first compound 0.005 µM) was 1.06 and the relative viability (EMC-BAC-2; first compound 0.01581 µM) was 1.15. It also gave a relative viability (EMC-BAC-2; first compound 0.05 µM) of 1.06, a relative viability (EMC-BAC-2; first compound 0.1581 µM) of 1.06 and a relative viability (EMC-BAC-2; first compound 0.5 µM) of 1.04. The relative viability (EPLC-272H; first compound 0.005 µM) was 0.147, the relative viability (EPLC-272H; first compound 0.01581 µM) was 0.159 and the relative viability (EPLC-272H; first compound 0.05 µM) was 0.186. For the same compound, the relative viability (EPLC-272H; first compound 0.1581 µM) was 0.203, the relative viability (EPLC-272H; first compound 0.5 µM) was 0.184 and the relative viability (HCC-78; first compound 0.005 µM) was 0.551. It also gave a relative viability (HCC-78; first compound 0.01581 µM) of 0.677, a relative viability (HCC-78; first compound 0.05 µM) of 0.674 and a relative viability (HCC-78; first compound 0.1581 µM) of 0.497. The relative viability (HCC-78; first compound 0.5 µM) was 0.657, the relative viability (HCC-827; first compound 0.005 µM) was 0.202 and the relative viability (HCC-827; first compound 0.01581 µM) was 0.25. For the same compound, the relative viability (HCC-827; first compound 0.05 µM) was 0.314, the relative viability (HCC-827; first compound 0.1581 µM) was 0.185 and the relative viability (HCC-827; first compound 0.5 µM) was 0.194. For the same compound, the relative viability (LCLC-103H; first compound 0.005 µM) was 0.758, the relative viability (LCLC-103H; first compound 0.01581 µM) was 0.829 and the relative viability (LCLC-103H; first compound 0.05 µM) was 0.812. It also gave a relative viability (LCLC-103H; first compound 0.1581 µM) of 0.689, a relative viability (LCLC-103H; first compound 0.5 µM) of 0.802 and a relative viability (LK-2; first compound 0.005 µM) of 0.512. It also gave a relative viability (LK-2; first compound 0.01581 µM) of 0.278, a relative viability (LK-2; first compound 0.05 µM) of 0.494 and a relative viability (LK-2; first compound 0.1581 µM) of 0.252. The relative viability (LK-2; first compound 0.5 µM) was 0.357, the relative viability (LU99A; first compound 0.005 µM) was 0.337 and the relative viability (LU99A; first compound 0.01581 µM) was 0.342. The relative viability (LU99A; first compound 0.05 µM) was 0.34, the relative viability (LU99A; first compound 0.1581 µM) was 0.27 and the relative viability (LU99A; first compound 0.5 µM) was 0.288. The relative viability (NCI-H1666; first compound 0.005 µM) was 0.784, the relative viability (NCI-H1666; first compound 0.01581 µM) was 0.761 and the relative viability (NCI-H1666; first compound 0.05 µM) was 0.956. The relative viability (NCI-H1666; first compound 0.1581 µM) was 0.82, the relative viability (NCI-H1666; first compound 0.5 µM) was 0.845 and the relative viability (NCI-H1975; first compound 0.005 µM) was 0.594. The relative viability (NCI-H1975; first compound 0.01581 µM) was 0.742, the relative viability (NCI-H1975; first compound 0.05 µM) was 0.746 and the relative viability (NCI-H1975; first compound 0.1581 µM) was 0.836. It also gave a relative viability (NCI-H1975; first compound 0.5 µM) of 0.595, a relative viability (NCI-H2126; first compound 0.005 µM) of 1.06 and a relative viability (NCI-H2126; first compound 0.01581 µM) of 0.936. For the same compound, the relative viability (NCI-H2126; first compound 0.05 µM) was 1.02, the relative viability (NCI-H2126; first compound 0.1581 µM) was 0.732 and the relative viability (NCI-H2126; first compound 0.5 µM) was 1.01. It also gave a relative viability (NCI-H2342; first compound 0.005 µM) of 0.492, a relative viability (NCI-H2342; first compound 0.01581 µM) of 0.431 and a relative viability (NCI-H2342; first compound 0.05 µM) of 0.609. It also gave a relative viability (NCI-H2342; first compound 0.5 µM) of 0.414, a relative viability (NCI-H23; first compound 0.005 µM) of 0.185 and a relative viability (NCI-H23; first compound 0.01581 µM) of 0.229. It also gave a relative viability (NCI-H23; first compound 0.05 µM) of 0.295, a relative viability (NCI-H23; first compound 0.5 µM) of 0.176 and a relative viability (NCI-H2405; first compound 0.005 µM) of 0.759. For the same compound, the relative viability (NCI-H2405; first compound 0.01581 µM) was 0.893, the relative viability (NCI-H2405; first compound 0.05 µM) was 0.735 and the relative viability (NCI-H2405; first compound 0.1581 µM) was 0.905. For the same compound, the relative viability (NCI-H2405; first compound 0.5 µM) was 0.518, the relative viability (NCI-H322M; first compound 0.005 µM) was 0.562 and the relative viability (NCI-H322M; first compound 0.01581 µM) was 0.767. The relative viability (NCI-H322M; first compound 0.05 µM) was 0.628, the relative viability (NCI-H322M; first compound 0.1581 µM) was 0.443 and the relative viability (NCI-H322M; first compound 0.5 µM) was 0.586. For the same compound, the relative viability (PC-14; first compound 0.005 µM) was 0.333, the relative viability (PC-14; first compound 0.01581 µM) was 0.338 and the relative viability (PC-14; first compound 0.05 µM) was 0.369. It also gave a relative viability (PC-14; first compound 0.1581 µM) of 0.385, a relative viability (PC-14; first compound 0.5 µM) of 0.375 and a relative viability (RERF-LC-KJ; first compound 0.005 µM) of 0.701. It also gave a relative viability (RERF-LC-KJ; first compound 0.01581 µM) of 0.925, a relative viability (RERF-LC-KJ; first compound 0.05 µM) of 1.07 and a relative viability (RERF-LC-KJ; first compound 0.1581 µM) of 0.659. The relative viability (RERF-LC-KJ; first compound 0.5 µM) was 0.892, the relative viability (SW 900; first compound 0.005 µM) was 0.649 and the relative viability (SW 900; first compound 0.01581 µM) was 0.636. It also gave a relative viability (SW 900; first compound 0.05 µM) of 0.675 and a relative viability (SW 900; first compound 0.5 µM) of 0.547.
